Tests used:
[1] = system: CYP2B6-expressing cells (Hepc/2B6.68); conditions: Hepc/2B6.68, 4 days incubation (printed FIG. 5)
Experimental: (§3) After incubation for 4 days, 20 μl of a MTT (Sigma) solution adjusted to 1 mg/ml with PBS (Flow) was added to each well followed by incubation at 37° C. for 3 hours. Next, 100 μl of 0.01N HCl solution containing 10% SDS was added to each well. After incubation at 37° C. overnight, absorbance was measured at 590 nm.

[2] = system: HepG2; conditions: HepG2, 4 days incubation (printed FIG. 4)
Experimental: as §3
Two plates each with the same design as in the MTT assay were prepared (for determination of LDH activity in the culture supernatant and for determination of LDH activity in the culture supernatant+LDH activity in the cells). After incubating for 4 days in a CO2 incubator, 10 μl of the supernatant was taken from each well of one plate (for determination of LDH activity in the supernatant), transferred to another 96-well plate, and 40 μl of distilled water was further added. On the other hand, 10 μl of 10% Triton X100 was added to each well of another plate (for determination of LDH activity in the culture supernatant+LDH activity in the cells), followed by shaking and incubation at 37° C. for 45 minutes. After centrifuging at 1500 rpm for 5 minutes, 10 μl of the supernatant was taken from each well, transferred to another 96-well plate, and 40 μl of distilled water was further added. The LDH activity of each well in these plates was measured using Cytotox 96 Non-Radioactive Cytotoxicity Assay Kit (Promega). Multiscanning MS-UV was used for the measurement of absorbance. […]

[3] = system: CYP2B6-expressing cells (Hepc/2B6.68); conditions: Hepc/2B6.68, 4 days incubation; plateau above 2 mM
Experimental: Two plates each with the same design as in the MTT assay were prepared (for determination of LDH activity in the culture supernatant and for determination of LDH activity in the culture supernatant+LDH activity in the cells). After incubating for 4 days in a CO2 incubator, 10 μl of the supernatant was taken from each well of one plate (for determination of LDH activity in the supernatant), transferred to another 96-well plate, and 40 μl of distilled water was further added. On the other hand, 10 μl of 10% Triton X100 was added to each well of another plate (for determination of LDH activity in the culture supernatant+LDH activity in the cells), followed by shaking and incubation at 37° C. for 45 minutes. After centrifuging at 1500 rpm for 5 minutes, 10 μl of the supernatant was taken from each well, transferred to another 96-well plate, and 40 μl of distilled water was further added. The LDH activity of each well in these plates was measured using Cytotox 96 Non-Radioactive Cytotoxicity Assay Kit (Promega). Multiscanning MS-UV was used for the measurement of absorbance. A ratio of the LDH activity in the supernatant to (the LDH activity in the supernatant + the LDH activity in the cells) was made an LDH leakage rate.

[4] = molecular target: CYP2E1 (Homo sapiens, UniProt P05181); conditions: Hepc/2E1.3-8 cells incubated 3 days with the substance; 500 μM p-nitrophenol (FIG. 7)
Experimental: The medium was suctioned and the cells attached to the plate were washed with Phenol Red-free DMEM medium. Subsequently, p-nitrophenol previously diluted to 500 μM was added in 500 μl/well. After reacting at 37° C., the reaction solution was recovered from each well. To 100 μl of the reaction solution 50 μl of NaOH (Wako Junyaku K. K. ) was added, and insoluble matters were removed by centrifugation. By measuring absorbance at 540 nm-620 nm with multi-scanning MS-UV (Labo Systems), 4-nitrocatechol formed was quantified.

[5] = system: CYP1A1-expressing cells (Hepc/1A1.4); assay: MTT assay, cytotoxicity of benzanthracene in CYP1A1-expressing cells; type: cell-based, human; conditions: Hepc/1A1.4 compared with HepG2, 4 days incubation, concentration-dependent (FIG. 3)
Experimental: CYP1A1-expressing cells (Hepc/1A1.4) (4×10^5 cells/ml) were incubated with benzanthracene (Sigma) diluted to a given concentration in DMEM medium supplemented with 5% FCS in a CO2 incubator. After incubation for 4 days, 20 μl of a MTT (Sigma) solution adjusted to 1 mg/ml with PBS (Flow) was added to each well followed by incubation at 37° C. for 3 hours. Next, 100 μl of 0.01N HCl solution containing 10% SDS was added to each well. After incubation at 37° C. overnight, absorbance was measured at 590 nm.

[6] = molecular target: T1, CYP2B6 (Homo sapiens, UniProt P20813); assay: Kinetic analysis, 7-ethoxycoumarin O-deethylase activity in Hepc/2B6.68; type: cell-based
T1 construct: expressed in transfected cells
T1 sequence (P20813 1-491): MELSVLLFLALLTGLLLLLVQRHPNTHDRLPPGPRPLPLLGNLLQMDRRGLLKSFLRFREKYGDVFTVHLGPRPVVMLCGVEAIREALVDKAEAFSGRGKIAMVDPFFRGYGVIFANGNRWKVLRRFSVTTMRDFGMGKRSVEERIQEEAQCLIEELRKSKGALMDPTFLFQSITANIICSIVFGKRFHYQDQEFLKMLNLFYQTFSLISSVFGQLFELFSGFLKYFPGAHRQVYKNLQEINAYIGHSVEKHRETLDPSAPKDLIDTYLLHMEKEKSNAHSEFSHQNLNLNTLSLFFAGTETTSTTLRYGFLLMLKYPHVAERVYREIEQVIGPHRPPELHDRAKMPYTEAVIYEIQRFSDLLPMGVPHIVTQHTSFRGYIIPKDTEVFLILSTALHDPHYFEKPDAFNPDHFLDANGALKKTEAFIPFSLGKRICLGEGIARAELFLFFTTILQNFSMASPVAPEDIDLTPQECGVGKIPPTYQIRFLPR
Experimental: The reaction solution was diluted to 10-fold with 0.1M Tris-HCl (pH 7.4) and fluorescent intensity was measured at an excited wavelength of 390 nm and a fluorescence wavelength of 440 nm, using a spectrofluorometer (Hitatchi Spectrofluorometer F-2000) to quantify 7-hydroxycoumarin formed. The product purchased from Extrasynthese was used as the standard substance for 7-hydroxycoumarin.

[7] = molecular target: CYP3A4 (Homo sapiens, UniProt P08684); assay: Kinetic analysis, testosterone 6β-hydroxylase activity in Hepc/3A4.5
Sequence of CYP3A4 (P08684 whole entry): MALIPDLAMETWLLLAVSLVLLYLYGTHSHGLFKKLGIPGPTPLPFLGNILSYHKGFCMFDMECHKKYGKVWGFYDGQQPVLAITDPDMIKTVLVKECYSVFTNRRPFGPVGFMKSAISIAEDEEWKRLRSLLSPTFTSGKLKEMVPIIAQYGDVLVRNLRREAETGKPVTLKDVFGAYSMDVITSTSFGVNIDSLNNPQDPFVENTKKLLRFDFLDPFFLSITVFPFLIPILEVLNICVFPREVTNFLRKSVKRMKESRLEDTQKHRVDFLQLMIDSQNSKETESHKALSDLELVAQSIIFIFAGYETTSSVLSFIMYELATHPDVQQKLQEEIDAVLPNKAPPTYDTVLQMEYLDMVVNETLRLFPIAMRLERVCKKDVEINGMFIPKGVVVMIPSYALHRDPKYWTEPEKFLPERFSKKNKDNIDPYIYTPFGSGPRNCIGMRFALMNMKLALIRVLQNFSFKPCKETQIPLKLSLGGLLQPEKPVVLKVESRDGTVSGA
Experimental: Subsequently, testosterone previously diluted to 100 μM was added in 500 μl/well.
A program was made up to set for a linear gradient of 0-100% solution B in 0-20 minutes, 100% solution B in 20-30 minutes and since then 100% solution.

[8] = system: HepG2; assay: LDH leakage test, acetaminophen in HepG2; type: cell-based, human
Experimental: (§1) Two plates each with the same design as in the MTT assay were prepared (for determination of LDH activity in the culture supernatant and for determination of LDH activity in the culture supernatant+LDH activity in the cells). After incubating for 3 days in a CO2 incubator, 10 μl of the supernatant was taken from each well of one plate (for determination of LDH activity in the supernatant), transferred to another 96-well plate, and 40 μl of distilled water was further added. On the other hand, 10 μl of 10% Triton X100 (Wako Junyaku K. K. ) was added to each well of another plate (for determination of LDH activity in the culture supernatant+LDH activity in the cells), followed by shaking and incubation at 37° C. for 45 minutes. After centrifuging at 1500 rpm for 5 minutes, 10 μl of the supernatant was taken from each well, transferred to another 96-well plate, and 40 μl of distilled water was further added. The LDH activity of each well in these plates was measured using Cytotox 96 Non-Radioactive Cytotoxicity Assay Kit (Promega). Multiscanning MS-UV was used for the measurement of absorbance. A ratio of the LDH activity in the supernatant to (the LDH activity in the supernatant+ the LDH activity in the cells) was made an LDH leakage rate.

[9] = system: HepG2; assay: MTT assay, cytotoxicity of acetaminophen in HepG2; type: cell-based, human; conditions: HepG2, without BSO, 4 days incubation (FIG. 1)
Experimental: (§2) HepG2 or CYP2E1-expressing cells (Hepc/2E1.3-8) (4×10^5 cells/ml) were incubated with acetaminophen (Wako Junyaku K. K. ) diluted to a given concentration in DMEM medium supplemented with 5% FCS in a CO2 incubator. In the test to terminate glutathione conjugation, L-Buthionine [S,R]-Sulfoximine (BSO, Sigma) was added to the medium in a final concentration of 100 μM. After incubation for 4 days, 20 μl of a solution of 3-(4,5-dimethyl-2-thiazolyl)-2,5-diphenyl-2H-tetrazolium bromide (MTT, Sigma) adjusted to 1 mg/ml with PBS (Flow) was added to each well followed by incubation at 37° C. for 3 hours. Next, 100 μl of 0.01N HCl solution containing 10% SDS was added to each well. After incubation at 37° C. overnight, absorbance was measured at 590 nm.

[10] = system: CYP2E1-expressing cells (Hepc/2E1.3-8); assay: MTT assay, cytotoxicity of acetaminophen in CYP2E1-expressing cells; type: cell-based, human; conditions: 4 days incubation (FIG. 1)
Experimental: as §2

[11] = system: CYP2E1-expressing cells (Hepc/2E1.3-8); assay: LDH leakage test, acetaminophen in CYP2E1-expressing cells; type: cell-based, human
Experimental: as §1

[12] = molecular target: T2, CYP2A6 (Homo sapiens, UniProt P11509); assay: Kinetic analysis, coumarin 7-hydroxylase activity in Hepc/2A6L.9; type: cell-based
T2 construct: expressed in transfected cells
T2 sequence (P11509 1-494): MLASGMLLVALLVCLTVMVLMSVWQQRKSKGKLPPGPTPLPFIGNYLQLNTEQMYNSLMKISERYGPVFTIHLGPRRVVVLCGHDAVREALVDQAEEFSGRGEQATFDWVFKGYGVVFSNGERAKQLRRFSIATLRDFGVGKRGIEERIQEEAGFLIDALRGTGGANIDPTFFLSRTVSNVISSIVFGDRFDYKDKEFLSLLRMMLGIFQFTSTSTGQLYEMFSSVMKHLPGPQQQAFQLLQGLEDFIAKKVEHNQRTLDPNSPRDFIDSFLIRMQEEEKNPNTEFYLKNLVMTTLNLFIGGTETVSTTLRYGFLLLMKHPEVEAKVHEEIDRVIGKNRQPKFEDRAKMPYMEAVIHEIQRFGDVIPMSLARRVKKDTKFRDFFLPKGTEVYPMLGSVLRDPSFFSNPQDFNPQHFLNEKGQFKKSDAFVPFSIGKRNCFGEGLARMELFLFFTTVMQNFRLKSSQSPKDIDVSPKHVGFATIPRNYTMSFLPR
Source text: The product purchased from Extrasynthese was used as the standard substance for 7-hydroxycoumarin.

Sequence of CYP2E1 (P05181 whole entry): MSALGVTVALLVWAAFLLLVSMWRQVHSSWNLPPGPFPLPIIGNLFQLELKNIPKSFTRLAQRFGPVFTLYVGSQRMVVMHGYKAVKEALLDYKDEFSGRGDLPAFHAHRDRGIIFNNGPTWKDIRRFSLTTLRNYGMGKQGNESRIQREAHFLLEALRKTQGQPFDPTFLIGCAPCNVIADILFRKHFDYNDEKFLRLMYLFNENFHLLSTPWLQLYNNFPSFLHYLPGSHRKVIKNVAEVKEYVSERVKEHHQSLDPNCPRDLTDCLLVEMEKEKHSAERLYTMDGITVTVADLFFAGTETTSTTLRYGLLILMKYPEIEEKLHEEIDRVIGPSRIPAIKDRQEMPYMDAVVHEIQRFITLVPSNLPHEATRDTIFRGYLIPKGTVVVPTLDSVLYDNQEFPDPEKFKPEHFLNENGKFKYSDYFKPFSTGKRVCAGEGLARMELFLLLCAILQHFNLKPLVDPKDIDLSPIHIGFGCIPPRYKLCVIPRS

SMILES: O=P1(N(CCCl)CCCl)NCCCO1 (stereo not shown) [Cyclophosphamide, cyclophosphamide]
- MTT activity [1]: slight decrease of the MTT activity concentration-dependently
- cytotoxicity [2]: slightly cytotoxic
- leakage of LDH [3]: concentration-dependently in the concentration up to 2 mM

SMILES: CCO [ethanol]
- CYP2E1 activity induction (p-nitrophenol hydroxylation, 4-nitrocatechol formed) [4]: the enzyme activity increases

SMILES: c1ccc2cc3c(ccc4ccccc43)cc2c1 [benzanthracene]
- reduction in the MTT activity [5]: more potent reduction in the MTT activity

SMILES: CCOc1ccc2ccc(=O)oc2c1 [7-ethoxycoumarin]
- Vmax ([6]; Lineweaver-Burk plot): 80 pmol/min/mg
- Km ([6]; human, Hepc/2B6.68 cells expressing CYP2B6, Lineweaver-Burk plot): 81 µM

SMILES: C[C@]12CC[C@H]3[C@@H](CCC4=CC(=O)CC[C@@]43C)[C@@H]1CC[C@@H]2O [Testosterone]
- Vmax ([7]; Hepc/3A4.5, testosterone 6β-hydroxylase activity, Lineweaver-Burk plot): 71 pmol/min/mg
- Km ([7]; human, Hepc/3A4.5 cells expressing CYP3A4): 96 µM

SMILES: CC(=O)Nc1ccc(O)cc1 [Acetaminophen, acetaminophen]
- effect of the presence of BSO on LDH leakage ([8]; HepG2 + 100 μM BSO (FIG. 2)): Any effect expected in the presence of BSO was not noted
- leakage of LDH ([8]; HepG2, without BSO, 3 days incubation (FIG. 2)): slight leakage of LDH
- MTT activity [9]: slight decrease of the MTT activity
- MTT activity in the presence of BSO ([10]; Hepc/2E1.3-8 + 100 μM BSO): increased sensitivity to acetaminophen
- MTT activity ([10]; Hepc/2E1.3-8, without BSO): slight decrease of the MTT activity
- enhancement of sensitivity to acetaminophen in the presence of BSO (LDH leakage) ([11]; Hepc/2E1.3-8 + 100 μM BSO (glutathione exhausted), versus without BSO): approximately 4 times
- leakage of LDH ([11]; Hepc/2E1.3-8, without BSO, 3 days incubation (FIG. 2)): slight leakage of LDH

SMILES: C[S+](C)[O-] [DMSO, dimethylsulfoxide]
- CYP2E1 activity induction (p-nitrophenol hydroxylation, 4-nitrocatechol formed) [4]: the enzyme activity increases

SMILES: O=c1ccc2ccccc2o1 [Coumarin]
- Vmax ([12]; Lineweaver-Burk plot): 412 pmol/min/mg
- Km ([12]; human, Hepc/2A6L.9 cells expressing CYP2A6, Lineweaver-Burk plot): 11.1 µM
